What was measured:
[1] = tested on: pre-osteoblastic cell line MC3T3-E1 subclone 4; test: Osteoblast alkaline phosphatase (ALP) activity; assay type: cell-based; settings: 7 days of differentiation, without ascorbic acid; MK-7 3 μM, VitD 1 nM, VitA 100 nM (FIG. 1A)
Text: (§1) The pre-osteoblastic cell line MC3T3-E1 subclone 4 (CRL-2593) was purchased from ATCC (Manassas; Virginia, USA). Cells were maintained in growth medium (GM) composed of ascorbic acid-free aMEM (ThermoFisher Scientific), supplemented with 10% fetal calf serum (FCS, ThermoFisher Scientific) and 1% penicillin/streptomycin. All culture media were refreshed every 2-3 days. Cells were passaged with trypsin/EDTA solution at less than 80% confluence. To induce differentiation into osteoblasts, cells were seeded at 5×10^4 cells/cm^2 and grown to confluency in GM for 24 h. Then, the medium was switched to differentiation medium (DM) composed of GM supplemented with 10 mM β-glycerophosphate and treatment solutions of interest. Ascorbic acid 50 μg/ml was also added to the DM depending on the experiment.
MC3T3-E1 subclone 4 cells were differentiated for 7 days without ascorbic acid, except for the positive control, and with the following treatment solutions: a mix composed of 3μM of vit.K2 (menaquinone-7), 100 nM of vit.A (all-trans-retinoic acid) and 1 nM of vit.D (1a,25-Dihydroxyvitamin D3); a mix called “SCFA20” composed of 15 μM of sodium acetate, 4 μM of sodium propionate and 1 μM of sodium butyrate; a mix called “SCFA50” composed of 37.5 μM of sodium acetate, 10 μM of sodium propionate and 2.5 μM of sodium butyrate; a mix called “SCFA60” composed of 45 μM of sodium acetate, 12 μM of sodium propionate and 3 μM of sodium butyrate. The vitamin mix was also combined to the 3 different combinations of short-chain fatty acids (SCFA).
After 7 days of differentiation, cells were then collected for alkaline phosphatase (ALP) activity measurement as described previously with minor modifications. […] Enzymatic reaction was monitored at 405 nm after 4-Nitrophenyl phosphate disodium salt hexahydrate addition. Michaelis-Menten kinetics were evaluated at 30° C. for 30 min. […] The activity value was normalized by protein content measured via the Pierce BCA Protein Assay Kit (ThermoFisher Scientific) according to the manufacturer's instructions.

osteocalcin = test: Osteocalcin mRNA levels (qPCR) in pre-osteoblastic cell line MC3T3-E1 subclone 4; assay type: cell-based; settings: 21 days of differentiation, without ascorbic acid; MK-7 3 μM, VitD 1 nM, VitA 100 nM (FIG. 1B)
Text: as §1
MC3T3-E1 subclone 4 cells were differentiated for 21 days (in DM without ascorbic acid except for the positive control) or 28 days (in DM containing ascorbic acid). Cells were then collected for gene expression analysis. […] RNA concentrations were measured using the DropSense96 (TRINEAN, Gentbrugge, Belgium).
CDNAs were synthetized using High-Capacity cDNA Reverse Transcription Kit (AppliedBiosystems; Waltham, Massachusetts, USA) according to the manufacturer's instructions. […] The relative gene expression was evaluated via the 2^-ΔCt method.

Row | SMILES | ALP activity (marker of osteoblast differentiation) [1] | Osteocalcin mRNA levels (osteocalcin)
1 | CC1=C(/C=C/C(C)=C/C=C/C(C)=C/C(=O)O)C(C)(C)CCC1 [vitamin A, all-trans-retinoic acid] | significant effect | no significant effect
2 | C=C1/C(=C\C=C2/CCC[C@]3(C)[C@@H]([C@H](C)CCCC(C)(C)O)CC[C@@H]23)C[C@@H](O)C[C@@H]1O [vitamin D, 1α,25-Dihydroxyvitamin D3] | significant effect | no significant effect
3 | CC(C)=CCC/C(C)=C/CC/C(C)=C/CC/C(C)=C/CC/C(C)=C/CC/C(C)=C/CC/C(C)=C/CC1=C(C)C(=O)c2ccccc2C1=O [vitamin K2, menaquinone-7] | no significant effect | –

— US20260315410A1, “COMBINATION FOR ENHANCING BONE GROWTH AND/OR BONE STRENGTH” (SOCIÉTÉ DES PRODUITS NESTLÉ S.A., priority 2023, published 2026)
